Data set [1] in a line: Chromosome aberration test.
Data set [2] deals with serotonin in the prefrontal region. Nature of the data set: Concentration of serotonin in the prefrontal region of rats by microdialysis. The class given is in vivo, rat. As for the experimental part:
The active ingredient of the agents of the present invention has the effect of increasing the concentration of serotonin in the synaptic cleft via inhibitory activity on SERT binding.
Male SD rats which were 10 to 12 weeks of age were used. The concentration of serotonin in the prefrontal region of each rat was measured in accordance with a published document (Kehr J., and Yoshitake T. (2006) Monitoring brain chemical signals by microdialysis. In: Encyclopedia of Sensors, Vol. 6. (Eds. C. A. Grimes, E. C. Dickey and M. V. Pishko) American Scientific Publishers, USA. 287-312) by microdialysis. Specifically, a dialysis probe was implanted in the prefrontal region of each rat under isoflurane anesthesia. Five days after the implantation surgery, artificial cerebrospinal fluid (148 mM of NaCl, 4 mM of KCl, 0.8 mM of MgCl2, 1.4 mM of CaCl2, 1.2 mM of Na2HPO4, 0.3 mM of NaH2PO4, pH 7.2)) was perfused at the flow rate of 1 μl/min under ambulatory conditions without anesthesia. 2,5-Piperazinedione,3,6-bis(phenylmethyl)-,(3S,6S) was suspended in 0.5% sodium carboxymethylcellulose (CMC-Na), and 2 mg/kg, 20 mg/kg, and 200 mg/kg were orally administered for 14 consecutive days. The amount of […] in 15 μl of perfusion liquid collected immediately before the final oral administration and every 30 minutes after the oral administration was quantitatively determined by HPLC-ECD. The results obtained within the period from 1 hour before the oral administration to 3 hours after the oral administration are shown in FIG. 1, where the time immediately before the oral administration of the test sample is set to 0 minute.

The nature of data set [3]: Ames test.
The subject of data set [4] is acetylcholine in the hippocampus. Nature of the data set: Concentration of acetylcholine in the hippocampus of rats by microdialysis. The class given is in vivo, rat. As to conditions: 200 mg/kg oral once. From the text:
It is considered that the hippocampus region of the brain, in which a cholinergic neuron is known to be involved, has a function related to learning and memory. Since cholinergic neuron is impaired in degenerative disease with symptoms such as reduced learning and memory, an increase in the concentration of acetylcholine in the hippocampus will improve the symptoms such as reduced learning and memory. The concentration of acetylcholine in the rat hippocampus was increased about 2.5-fold, as measured by microdialysis, by the active ingredient of the agents of the present invention.
A dialysis probe was embedded in the hippocampus of each rat, and measurement was conducted as in Example 1. 2,5-Piperazinedione,3,6-bis(phenylmethyl)-,(3S,6S) was suspended in 0.5% CMC-Na, and 200 mg/kg was orally administered once. The amount of acetylcholine in 15 μl of perfusion liquid collected immediately before the […] oral administration and every 30 minutes after the oral administration was quantitatively determined by HPLC-ECD. The results obtained within the period from 1 hour before the oral administration to 3 hours after the oral administration are shown in FIG. 3, where the time immediately before the oral administration of the test sample is set to 0 minute. […]

Data set [5] relates to rats with scopolamine-induced impairment of learning. The data set is described as follows: Radial maze test using rats with scopolamine-induced impairment of learning. Particulars: 200 mg/kg oral, scopolamine 0.5 mg/kg i.p., 8-direction radial maze. The class given is in vivo, rat. The procedure:
Scopolamine is a non-selective competitive antagonist of muscarinic acetylcholine receptors. Laboratory animals with scopolamine-induced impairment of learning are widely used as a memory disorder model.
Using SD male rats which were 7 weeks of age, practice training was conducted while the rats were under food deprivation, and thereafter a main test was conducted.
Food was placed at the end of each arm of an 8-direction radial maze, and an animal was placed on a platform at the center of the maze. Completion of one trial was when the animal finished acquiring food from all arms or when 10 minutes elapsed since the animal was placed on the platform. The training was conducted once a day. “Correct choice” was defined as visiting an unselected arm in the trial, and “wrong choice” was defined as visiting an arm from where food had already been acquired.
2,5-Piperazinedione,3,6-bis(phenylmethyl)-,(3S,6S) was suspended in 0.5% CMC-Na, and 20 mg/kg and 200 mg/kg were orally administered to the rats which attained the standard in the above practice training trials. Ten minutes after the oral administration, 0.5 mg/kg of scopolamine was intraperitoneally administered. Thirty minutes after the intraperitoneal administration of scopolamine, an 8-direction radial maze test was conducted, and the number of wrong choices and the time taken for the […] to acquire all food were counted. […]

Data set [6] relates to rats. The class given is in vivo. As to conditions: 28-day repeated dose.
Data set [7] has as its system loser mice (mice in a depressive state). The data set is described as follows: Morris water maze test with mice in a depressive state (loser mice). As to conditions: loser C57BL/6 mice. The class given is in vivo, mouse. The procedure:
The active ingredient of the agents of the present invention has antidepressive action. Antidepressive action as SSRI may be measured by a method described in a published document (Exp Anim, 59(2), 191-197, 2010). Specifically, first, a Morris water maze test is conducted for 8 days using mice.
The active ingredient of the agents of the present invention has learning motivation improving action. The Morris water maze test has been reported as a method for measuring spatial memory and learning (Learn. Motiv. 12, 239-260 (1981)). In this test, the time required to reach an escape platform (escape latency) is used as a parameter for evaluation, because mice will remember their surrounding scenery and swim in a pool filled with water to try to find and reach the escape platform, which is a goal, with their memory as a guide. Since mice used in a main test are chosen from those which were subjected to the Morris water maze test for 8 days and could not reach the escape platform within […], a reduction in the time required to reach the escape platform can be regarded as an improvement in learning motivation.
Antidepressive action was measured in accordance with a published document (Exp Anim, 59(2), 191-197, 2010). […]

The subject of data set [8] is mice. The data set is described as follows: Mice micronucleus test. The class given is in vivo.
In data set [9] the test system is mice. Nature of the data set: Single-dose acute toxicity test. As to conditions: 2 g/kg single dose. The class given is in vivo, mouse.
For data set [10], the target named is AChE (Homo sapiens, UniProt P22303). Nature of the data set: AChE inhibitory action with MATP+ substrate. The class given is biochemical. As to conditions: absorbance at 412 nm, read-out: concentration (IC50) required for 50% inhibition of AChE. As for the experimental part:
The active ingredient of the agents of the present invention has AChE inhibitory action. AChE inhibitory action may be measured with MATP+ (1,1-dimethyl-4-acetylthiomethylpiperidine), which is a substrate having high selectivity for AChE (Biol Pharma Bull, 33(4), 702-706, 2010). Specifically, AChE is reacted with MATP+, and measurement is conducted using as an indicator a change in absorbance at 412 nm associated with reaction of detection reagent DNTB (5,5′-dithiobis(2-nitrobenzoic acid)).
AChE inhibitory action was measured with MATP+ (1,1-dimethyl-4-acetylthiomethylpiperidine), which is a substrate having high selectivity for AChE (Biol Pharma Bull, 33(4), 702-706, 2010). Specifically, AChE was reacted with MATP+, and measurement was conducted using as an indicator a change in absorbance at 412 nm associated with reaction of detection reagent DNTB (5,5′-dithiobis(2-nitrobenzoic acid)).

Setting [11] is: listed as active ingredient of the agents of the present invention.

“Also recorded” adds a separate entry of the source.

Chain of AChE (P22303 32-614): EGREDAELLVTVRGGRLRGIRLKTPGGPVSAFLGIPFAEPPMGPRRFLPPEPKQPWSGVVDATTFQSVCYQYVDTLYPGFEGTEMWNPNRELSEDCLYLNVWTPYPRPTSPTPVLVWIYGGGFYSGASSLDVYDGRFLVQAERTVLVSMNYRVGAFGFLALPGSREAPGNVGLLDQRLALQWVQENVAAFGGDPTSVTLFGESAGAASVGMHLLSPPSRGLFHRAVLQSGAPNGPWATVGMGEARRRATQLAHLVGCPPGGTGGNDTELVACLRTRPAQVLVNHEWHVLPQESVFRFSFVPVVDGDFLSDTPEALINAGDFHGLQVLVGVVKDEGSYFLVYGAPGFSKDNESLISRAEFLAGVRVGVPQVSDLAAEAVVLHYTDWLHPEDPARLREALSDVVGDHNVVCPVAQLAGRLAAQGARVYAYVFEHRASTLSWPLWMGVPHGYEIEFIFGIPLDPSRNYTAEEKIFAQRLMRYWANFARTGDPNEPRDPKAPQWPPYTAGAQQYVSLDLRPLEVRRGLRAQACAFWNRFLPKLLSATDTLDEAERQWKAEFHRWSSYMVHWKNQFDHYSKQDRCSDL

In the case of `O=C1N[C@@H](Cc2ccccc2)C(=O)N[C@H]1Cc1ccccc1` [2,5-piperazinedione,3,6-bis(phenylmethyl)-,(3S,6S)], in [1], the “mutagenicity in chromosome aberration test” value was “no mutagenicity”. For the same compound, the “concentration of serotonin in the prefrontal region” value in data set [2] (male SD rats, 20 mg/kg oral, 14 consecutive days) is “increased significantly”; in data set [2] (male SD rats, 200 mg/kg oral, 14 consecutive days), “increased significantly”; in data set [2] (normal rats, oral for 2 weeks, across doses) it was “increased dose-dependently and significantly”. In [3], the “mutagenicity in Ames test” value is recorded as “no mutagenicity”. In addition, the “increase of concentration of acetylcholine in the hippocampus” value in data set [4] is 2.5 fold; in [4] (setting [11]), “about 2.5 fold”. In addition, the “percentage of correct choices” value in [5] was “improved significantly”; in [5] (setting [11]) it was “significantly improved”. Also, the no-observable-effect level in data set [6] is reported as at least 10 mg/kg/day. In addition, the escape latency result in [7] (oral 0.2 mg/kg or more) is listed as “reduced significantly”; in data set [7] (oral 0.02, 0.2, 2 and 20 mg/kg, dose dependence), “dose-dependent, significant reduction; also recorded: reduced dose-dependently”. Also, the “mutagenicity in mice micronucleus test” value in data set [8] was “no mutagenicity”. The “toxicity in single-dose acute toxicity test” value in data set [9] was “no toxicity”. Also, the IC50 in [10] was 3.4 µM.

For the origin of these results see patent US9877960B2 (priority 2012, dated 2018).
